# ± gives the expanded uncertainty stated by the source.
# Assay: xn = mol fraction of the nth substance listed
# Conditions: 101 kPa, Liquid
structure (smiles),measurement,setting,value
"OCCO [1,2-ethanediol] + O",mass density,"293.15 K, x1 = 0.0312",1011.7 ± 3.8 kg/m3
same,viscosity,"293.15 K, x1 = 0.0312",1.337 ± 0.024 mPa·s
same,mass density,"293.15 K, x1 = 0.0676",1024.6 ± 3.9 kg/m3
same,viscosity,"293.15 K, x1 = 0.0676",1.785 ± 0.031 mPa·s
same,mass density,"293.15 K, x1 = 0.1105",1037.2 ± 3.9 kg/m3
same,viscosity,"293.15 K, x1 = 0.1105",2.272 ± 0.039 mPa·s
same,mass density,"293.15 K, x1 = 0.162",1051.3 ± 4 kg/m3
same,viscosity,"293.15 K, x1 = 0.162",2.951 ± 0.05 mPa·s
same,mass density,"293.15 K, x1 = 0.2248",1064.8 ± 4.1 kg/m3
same,viscosity,"293.15 K, x1 = 0.2248",3.941 ± 0.065 mPa·s
same,mass density,"293.15 K, x1 = 0.3031",1076.7 ± 4.1 kg/m3
same,viscosity,"293.15 K, x1 = 0.3031",5.102 ± 0.083 mPa·s
same,mass density,"293.15 K, x1 = 0.4036",1087.8 ± 4.2 kg/m3
same,viscosity,"293.15 K, x1 = 0.4036",6.898 ± 0.1 mPa·s
same,mass density,"293.15 K, x1 = 0.537",1097.8 ± 4.2 kg/m3
same,viscosity,"293.15 K, x1 = 0.537",9.696 ± 0.14 mPa·s
same,mass density,"293.15 K, x1 = 0.723",1105.7 ± 4.3 kg/m3
same,viscosity,"293.15 K, x1 = 0.723",14.04 ± 0.19 mPa·s
same,mass density,"293.15 K, x1 = 1",1113.7 ± 4.3 kg/m3
same,viscosity,"293.15 K, x1 = 1",20.83 ± 0.27 mPa·s
same,mass density,"303.15 K, x1 = 0.0312",1006.1 ± 4.1 kg/m3
same,viscosity,"303.15 K, x1 = 0.0312",1.047 ± 0.019 mPa·s
same,mass density,"303.15 K, x1 = 0.0676",1018.4 ± 4.2 kg/m3
same,viscosity,"303.15 K, x1 = 0.0676",1.331 ± 0.024 mPa·s
same,mass density,"303.15 K, x1 = 0.1105",1030 ± 4.3 kg/m3
same,viscosity,"303.15 K, x1 = 0.1105",1.694 ± 0.03 mPa·s
same,mass density,"303.15 K, x1 = 0.162",1043.4 ± 4.3 kg/m3
same,viscosity,"303.15 K, x1 = 0.162",2.2 ± 0.038 mPa·s
same,mass density,"303.15 K, x1 = 0.2248",1056.2 ± 4.4 kg/m3
same,viscosity,"303.15 K, x1 = 0.2248",2.832 ± 0.048 mPa·s
same,mass density,"303.15 K, x1 = 0.3031",1067.5 ± 4.4 kg/m3
same,viscosity,"303.15 K, x1 = 0.3031",3.728 ± 0.062 mPa·s
same,mass density,"303.15 K, x1 = 0.4036",1078 ± 5 kg/m3
same,viscosity,"303.15 K, x1 = 0.4036",4.955 ± 0.081 mPa·s
same,mass density,"303.15 K, x1 = 0.537",1087 ± 5 kg/m3
same,viscosity,"303.15 K, x1 = 0.537",6.749 ± 0.1 mPa·s
same,viscosity,"303.15 K, x1 = 0.723",9.399 ± 0.13 mPa·s
same,viscosity,"303.15 K, x1 = 1",13.65 ± 0.18 mPa·s
same,mass density,"313.15 K, x1 = 0.0312",1001.3 ± 4.5 kg/m3
same,viscosity,"313.15 K, x1 = 0.0312",0.835 ± 0.016 mPa·s
same,mass density,"313.15 K, x1 = 0.0676",1010.6 ± 4.5 kg/m3
same,viscosity,"313.15 K, x1 = 0.0676",1.022 ± 0.019 mPa·s
same,mass density,"313.15 K, x1 = 0.1105",1021.9 ± 4.6 kg/m3
same,viscosity,"313.15 K, x1 = 0.1105",1.319 ± 0.024 mPa·s
same,mass density,"313.15 K, x1 = 0.162",1034.7 ± 4.6 kg/m3
same,viscosity,"313.15 K, x1 = 0.162",1.677 ± 0.029 mPa·s
same,mass density,"313.15 K, x1 = 0.2248",1046.8 ± 4.7 kg/m3
same,viscosity,"313.15 K, x1 = 0.2248",2.132 ± 0.037 mPa·s
same,mass density,"313.15 K, x1 = 0.3031",1057.9 ± 4.8 kg/m3
same,viscosity,"313.15 K, x1 = 0.3031",2.756 ± 0.047 mPa·s
same,mass density,"313.15 K, x1 = 0.4036",1067.9 ± 4.8 kg/m3
same,viscosity,"313.15 K, x1 = 0.4036",3.575 ± 0.059 mPa·s
same,mass density,"313.15 K, x1 = 0.537",1077.1 ± 4.9 kg/m3
same,viscosity,"313.15 K, x1 = 0.537",4.776 ± 0.078 mPa·s
same,mass density,"313.15 K, x1 = 0.723",1085.8 ± 4.9 kg/m3
same,viscosity,"313.15 K, x1 = 0.723",6.449 ± 0.099 mPa·s
same,mass density,"313.15 K, x1 = 1",1093.6 ± 4.9 kg/m3
same,viscosity,"313.15 K, x1 = 1",9.443 ± 0.13 mPa·s
same,mass density,"323.15 K, x1 = 0.0312",994.9 ± 4.8 kg/m3
same,viscosity,"323.15 K, x1 = 0.0312",0.685 ± 0.014 mPa·s
same,mass density,"323.15 K, x1 = 0.0676",1005.1 ± 4.9 kg/m3
same,viscosity,"323.15 K, x1 = 0.0676",0.868 ± 0.016 mPa·s
same,mass density,"323.15 K, x1 = 0.1105",1015.1 ± 4.9 kg/m3
same,viscosity,"323.15 K, x1 = 0.1105",1.064 ± 0.02 mPa·s
same,mass density,"323.15 K, x1 = 0.162",1027.4 ± 5 kg/m3
same,viscosity,"323.15 K, x1 = 0.162",1.322 ± 0.024 mPa·s
same,mass density,"323.15 K, x1 = 0.2248",1038.6 ± 5 kg/m3
same,viscosity,"323.15 K, x1 = 0.2248",1.657 ± 0.029 mPa·s
same,mass density,"323.15 K, x1 = 0.3031",1049.2 ± 5.1 kg/m3
same,viscosity,"323.15 K, x1 = 0.3031",2.113 ± 0.036 mPa·s
same,mass density,"323.15 K, x1 = 0.4036",1059 ± 5 kg/m3
same,viscosity,"323.15 K, x1 = 0.4036",2.709 ± 0.046 mPa·s
same,mass density,"323.15 K, x1 = 0.537",1068 ± 5 kg/m3
same,viscosity,"323.15 K, x1 = 0.537",3.593 ± 0.06 mPa·s
same,mass density,"323.15 K, x1 = 0.723",1076.7 ± 5.2 kg/m3
same,viscosity,"323.15 K, x1 = 0.723",4.837 ± 0.079 mPa·s
same,mass density,"323.15 K, x1 = 1",1084.7 ± 5.3 kg/m3
same,viscosity,"323.15 K, x1 = 1",6.992 ± 0.11 mPa·s
same,mass density,"333.15 K, x1 = 0.0312",989.8 ± 5.2 kg/m3
same,viscosity,"333.15 K, x1 = 0.0312",0.576 ± 0.012 mPa·s
same,mass density,"333.15 K, x1 = 0.0676",997.9 ± 5.2 kg/m3
same,viscosity,"333.15 K, x1 = 0.0676",0.713 ± 0.014 mPa·s
same,mass density,"333.15 K, x1 = 0.1105",1007.2 ± 5.3 kg/m3
same,viscosity,"333.15 K, x1 = 0.1105",0.875 ± 0.017 mPa·s
same,mass density,"333.15 K, x1 = 0.162",1019.2 ± 5.3 kg/m3
same,viscosity,"333.15 K, x1 = 0.162",1.073 ± 0.02 mPa·s
same,mass density,"333.15 K, x1 = 0.2248",1030.3 ± 5.4 kg/m3
same,viscosity,"333.15 K, x1 = 0.2248",1.312 ± 0.024 mPa·s
same,mass density,"333.15 K, x1 = 0.3031",1040.6 ± 5.4 kg/m3
same,viscosity,"333.15 K, x1 = 0.3031",1.626 ± 0.029 mPa·s
same,mass density,"333.15 K, x1 = 0.4036",1050.3 ± 5.5 kg/m3
same,viscosity,"333.15 K, x1 = 0.4036",2.053 ± 0.035 mPa·s
same,mass density,"333.15 K, x1 = 0.537",1059.2 ± 5.5 kg/m3
same,viscosity,"333.15 K, x1 = 0.537",2.684 ± 0.045 mPa·s
same,mass density,"333.15 K, x1 = 0.723",1068 ± 6 kg/m3
same,viscosity,"333.15 K, x1 = 0.723",3.51 ± 0.058 mPa·s
same,mass density,"333.15 K, x1 = 1",1076.4 ± 5.6 kg/m3
same,viscosity,"333.15 K, x1 = 1",5.06 ± 0.082 mPa·s
same,mass density,"343.15 K, x1 = 0.0312",983.7 ± 5.5 kg/m3
same,viscosity,"343.15 K, x1 = 0.0312",0.498 ± 0.011 mPa·s
same,mass density,"343.15 K, x1 = 0.0676",991.5 ± 5.5 kg/m3
same,viscosity,"343.15 K, x1 = 0.0676",0.597 ± 0.013 mPa·s
same,mass density,"343.15 K, x1 = 0.1105",1000.4 ± 5.6 kg/m3
same,viscosity,"343.15 K, x1 = 0.1105",0.728 ± 0.014 mPa·s
same,mass density,"343.15 K, x1 = 0.162",1011.5 ± 5.6 kg/m3
same,viscosity,"343.15 K, x1 = 0.162",0.881 ± 0.017 mPa·s
same,mass density,"343.15 K, x1 = 0.2248",1022.3 ± 5.7 kg/m3
same,viscosity,"343.15 K, x1 = 0.2248",1.071 ± 0.02 mPa·s
same,mass density,"343.15 K, x1 = 0.3031",1031.9 ± 5.7 kg/m3
same,viscosity,"343.15 K, x1 = 0.3031",1.32 ± 0.024 mPa·s
same,mass density,"343.15 K, x1 = 0.4036",1041.3 ± 5.8 kg/m3
same,viscosity,"343.15 K, x1 = 0.4036",1.648 ± 0.029 mPa·s
same,mass density,"343.15 K, x1 = 0.537",1050.1 ± 5.8 kg/m3
same,viscosity,"343.15 K, x1 = 0.537",2.136 ± 0.037 mPa·s
same,mass density,"343.15 K, x1 = 0.723",1058.8 ± 5.9 kg/m3
same,viscosity,"343.15 K, x1 = 0.723",2.817 ± 0.048 mPa·s
same,mass density,"343.15 K, x1 = 1",1067.5 ± 5.9 kg/m3
same,viscosity,"343.15 K, x1 = 1",3.987 ± 0.066 mPa·s
same,mass density,"353.15 K, x1 = 0.0312",977.1 ± 5.8 kg/m3
same,viscosity,"353.15 K, x1 = 0.0312",0.434 ± 0.01 mPa·s
same,mass density,"353.15 K, x1 = 0.0676",984.7 ± 5.9 kg/m3
same,viscosity,"353.15 K, x1 = 0.0676",0.525 ± 0.012 mPa·s
same,mass density,"353.15 K, x1 = 0.1105",993.6 ± 5.9 kg/m3
same,viscosity,"353.15 K, x1 = 0.1105",0.629 ± 0.013 mPa·s
same,mass density,"353.15 K, x1 = 0.162",1003.8 ± 6 kg/m3
same,viscosity,"353.15 K, x1 = 0.162",0.758 ± 0.015 mPa·s
same,mass density,"353.15 K, x1 = 0.2248",1014 ± 6 kg/m3
same,viscosity,"353.15 K, x1 = 0.2248",0.906 ± 0.017 mPa·s
same,mass density,"353.15 K, x1 = 0.3031",1023.7 ± 6.1 kg/m3
same,viscosity,"353.15 K, x1 = 0.3031",1.1 ± 0.02 mPa·s
same,mass density,"353.15 K, x1 = 0.4036",1033 ± 6 kg/m3
same,viscosity,"353.15 K, x1 = 0.4036",1.359 ± 0.024 mPa·s
same,mass density,"353.15 K, x1 = 0.537",1042 ± 6 kg/m3
same,viscosity,"353.15 K, x1 = 0.537",1.748 ± 0.031 mPa·s
same,mass density,"353.15 K, x1 = 0.723",1050.9 ± 6.2 kg/m3
same,viscosity,"353.15 K, x1 = 0.723",2.296 ± 0.039 mPa·s
same,mass density,"353.15 K, x1 = 1",1060 ± 6.3 kg/m3
same,viscosity,"353.15 K, x1 = 1",3.021 ± 0.051 mPa·s
